Assay results: patent US20150297609A1, “STERILE OPHTHALMIC PHARMACEUTICAL SUSPENSIONS” (SENTISS PHARMA PVT. LTD., priority 2012, published 2015)

Assay: Particle size analysis of brinzolamide precipitated after autoclaving
Type: physicochemical
Conditions: precipitated during cooling after autoclaving, before size reduction
From the text: The precipitated brinzolamide is preferably in partially amorphous or crystalline form, preferably in crystalline form, more preferably in highly crystalline form. The particles are preferably in the form of fine particles. More preferably the fine particulate has an average particle size of less than 100 μm, more preferably less than 50 μm. The particle size can be reduced further by sonication to an average particle size less than […], more preferably less than 30 pm or 20 pm. Any method can be used to determine particle size distribution. One preferred method is to use a light scattering or Coulter counter method. It is preferred that 90% of the particles (D(0.9)) be less than 15 pm, more preferably, D(0.9) is in the range of 10-15 pm. It is preferred that 100% of the particles (D(1)) be less than 30 pm, more preferably less than about 20 pm.
During autoclaving due to high temperature and pressure, brinzolamide goes in solution. Upon completion of the autoclave cycle, during cooling, brinzolamide starts precipitating out. Brinzolamide forms needle shaped crystals of 1000 to 3000 microns. These needle shaped crystals of brinzolamide are further reduced in fine crystalline form to be used in the present invention formulation and the reduced particle size is as per table 3.
This particle size is further reduced to […] through rapid cooling with stirring. […]

size of needle shaped crystals: 1000 to 3000 microns
SMILES: CCN[C@H]1CN(CCCOC)S(=O)(=O)c2sc(S(N)(=O)=O)cc21 [API, (R)-(+)-4-ethylamino-2-(3-methoxypropyl)-3,4-dihydro-2H-thieno[3,2-e]-1,2-thiazine-6-sulfonamide-1,1-dioxide]
